Laboratory results from publication PMC11672294, “The Antipsychotic Drug Aripiprazole Suppresses Colorectal Cancer by Targeting LAMP2a to Induce RNH1/miR‐99a/mTOR‐Mediated Autophagy and Apoptosis” (Advanced Science, 2024).
Where a name gives a salt, the structure may show the parent alone.

The compounds below were run on HT29. Conditions: 72 h, relative to DMSO, 10 µM, Relative cell viability (%).
Method in brief: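 HT29 viability used WST-1 reduction (2 h, 37 °C, A450) after 72 h of treatment; screening compounds were tested singly at 10 µM, with dimethyl sulfoxide as the comparison.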

Row | SMILES | Relative cell viability (%) [%]
1 | COc1cc(Nc2ncc(F)c(Nc3ccc4c(n3)N(COP(=O)(O)O)C(=O)C(C)(C)O4)n2)cc(OC)c1OC [R788 (Fostamatinib) Disodium] | 100.8
2 | CCN(C)C(=O)Oc1cccc([C@H](C)N(C)C)c1 [Rivastigmine Tartrate] | 125
3 | CCN(C)C(=O)Oc1cccc([C@H](C)N(C)C)c1 [Rivastigmine] | 88.03

Same assay, conditions: 72 h, relative to DMSO; 10 µM

Row | SMILES | Relative cell viability (%) [%]
4 | O=C(Nc1cccc2c(=O)cc(-c3nnn[nH]3)oc12)c1ccc(OCCCCc2ccccc2)cc1 [Pranlukast] | 81.78
5 | CC(C(=O)O)c1ccc2c(c1)Cc1cccnc1O2 (centres unmarked) [Pranoprofen] | 135
6 | CC(=O)Oc1cc2c(s1)CCN(C(C(=O)C1CC1)c1ccccc1F)C2 (centres unmarked) [Prasugrel] | 68.07
7 | CC[C@H](C)C(=O)O[C@H]1C[C@H](O)C=C2C=C[C@H](C)[C@H](CC[C@@H](O)C[C@@H](O)CC(=O)O)[C@H]21 [Pravastatin sodium] | 89.81
8 | C[C@]12C=CC(=O)C=C1CC[C@@H]1[C@@H]2[C@@H](O)C[C@@]2(C)[C@H]1CC[C@]2(O)C(=O)CO [Prednisolone] | 56.36
9 | CC(=O)[C@H]1CC[C@H]2[C@@H]3CC=C4C[C@@H](O)CC[C@]4(C)[C@H]3CC[C@]12C [Pregnenolone] | 94.21
10 | CCC1(c2ccccc2)C(=O)NCNC1=O [Primidone] | 178.2
11 | CC(C)(Sc1cc(C(C)(C)C)c(O)c(C(C)(C)C)c1)Sc1cc(C(C)(C)C)c(O)c(C(C)(C)C)c1 [Probucol] | 130.3
12 | CCN(CC)CCNC(=O)c1ccc(N)cc1 [Procainamide HCl] | 73.94
13 | CC(CN1c2ccccc2Sc2ccccc21)N(C)C (centres unmarked) [Promethazine HCl] | 62.12
14 | CCCOc1ccc(C(=O)OCCN(CC)CC)cc1N [Proparacaine HCl] | 89.41
15 | CCCc1cc(=O)[nH]c(=S)[nH]1 [Propylthiouracil] | 201.3
16 | CCCc1cc(C(N)=S)ccn1 [Protionamide] | 123.7
17 | NC(=O)[C@@H]1CCCN1C(=O)[C@H](Cc1cnc[nH]1)NC(=O)[C@@H]1CCC(=O)N1 [Protirelin] | 76.5
18 | COCCCN1CCC(NC(=O)c2cc(Cl)c(N)c3c2OCC3)CC1 [Prucalopride] | 129.1
19 | COc1ccc(C[C@H](N)C(=O)N[C@H]2[C@@H](O)[C@H](n3cnc4c(N(C)C)ncnc43)O[C@@H]2CO)cc1 [Puromycin 2HCl] | 0
20 | NC(=O)c1cnccn1 [Pyrazinamide] | 83.05
21 | CCc1nc(N)nc(N)c1-c1ccc(Cl)cc1 [Pyrimethamine] | 41.03
22 | OCCOCCN1CCN(C2=Nc3ccccc3Sc3ccccc32)CC1 [Quetiapine Fumarate] | 47.46
23 | O=C(c1ccc(OCCN2CCCCC2)cc1)c1c(-c2ccc(O)cc2)sc2cc(O)ccc12 [Raloxifene HCl] | 36.92
24 | Cc1nnc(C(=O)NC(C)(C)c2nc(C(=O)NCc3ccc(F)cc3)c(O)c(=O)n2C)o1 [Raltegravir (MK-0518)] | 181.8
25 | CCC(=O)NCC[C@@H]1CCc2ccc3c(c21)CCO3 [Ramelteon] | 64.95
26 | CCOC(=O)[C@H](CCc1ccccc1)N[C@@H](C)C(=O)N1[C@H](C(=O)O)C[C@@H]2CCC[C@@H]21 [Ramipril] | 75.42
27 | CNC(=C[N+](=O)[O-])NCCSCc1ccc(CN(C)C)o1 [Ranitidine] | 97.03

Row | SMILES | Relative cell viability (%) [%]
28 | COc1ccccc1OCC(O)CN1CCN(CC(=O)Nc2c(C)cccc2C)CC1 (centres unmarked) [Ranolazine] | 67.8
29 | C#CCN[C@@H]1CCc2ccccc21 [Rasagiline Mesylate] | 103.1
30 | O=C(NC(Cc1cc(=O)[nH]c2ccccc12)C(=O)O)c1ccc(Cl)cc1 (centres unmarked) [Rebamipide] | 125.4
31 | CN(C)Cc1ccc(S(=O)(=O)n2ccc(/C=C/C(=O)NO)c2)cc1 [Resminostat] | 19.9
32 | CO[C@H]1/C=C/O[C@@]2(C)Oc3c(C)c(O)c4c(c3C2=O)C2=NC3(CCN(CC(C)C)CC3)NC2=C(NC(=O)/C(C)=C\C=C\[C@H](C)[C@H](O)[C@@H](C)[C@@H](O)[C@@H](C)[C@H](OC(C)=O)[C@@H]1C)C4=O [Rifabutin] | 70.34
33 | CO[C@H]1/C=C/O[C@@]2(C)Oc3c(C)c(O)c4c(O)c(c(/C=N/N5CCN(C)CC5)c(O)c4c3C2=O)NC(=O)/C(C)=C\C=C\[C@H](C)[C@H](O)[C@@H](C)[C@@H](O)[C@@H](C)[C@H](OC(C)=O)[C@@H]1C [Rifampin] | 76.69
34 | CO[C@H]1/C=C/O[C@@]2(C)Oc3c(C)c(O)c4c(O)c(c(/C=N/N5CCN(C6CCCC6)CC5)c(O)c4c3C2=O)NC(=O)/C(C)=C\C=C\[C@H](C)[C@H](O)[C@@H](C)[C@@H](O)[C@@H](C)[C@H](OC(C)=O)[C@@H]1C [Rifapentine] | 69.07
35 | CO[C@H]1/C=C/O[C@@]2(C)Oc3c(C)c(O)c4c(O)c(c5c(nc6cc(C)ccn65)c4c3C2=O)NC(=O)/C(C)=C\C=C\[C@H](C)[C@H](O)[C@@H](C)[C@@H](O)[C@@H](C)[C@H](OC(C)=O)[C@@H]1C [Rifaximin] | 94.49
36 | COc1cc(OC)c(/C=C/S(=O)(=O)Cc2ccc(OC)c(NCC(=O)O)c2)c(OC)c1 [Rigosertib (ON-01910)] | 4.206
37 | Cc1cc(/C=C/C#N)cc(C)c1Nc1ccnc(Nc2ccc(C#N)cc2)n1 [Rilpivirine] | 58.55
38 | CC(N)C12CC3CC(CC(C3)C1)C2 (centres unmarked) [Rimantadine] | 127.5
39 | Cc1c(C(=O)NN2CCCCC2)nn(-c2ccc(Cl)cc2Cl)c1-c1ccc(Cl)cc1 [Rimonabant] | 79.61
40 | C[C@H]1CNCCCN1S(=O)(=O)c1cccc2cncc(F)c12 [Ripasudil (K-115)] | 118.8
41 | O=C(NC[C@H]1CN(c2ccc(N3CCOCC3=O)cc2)C(=O)O1)c1ccc(Cl)s1 [Rivaroxaban] | 107.3
42 | O=C(CCCCCCNC(=O)c1cnc(N(c2ccccc2)c2ccccc2)nc1)NO [Rocilinostat (ACY-1215)] | 32.91
43 | CS(=O)(=O)c1ccc(C2=C(c3ccccc3)C(=O)OC2)cc1 [Rofecoxib] | 116
44 | O=C(Nc1c(Cl)cncc1Cl)c1ccc(OC(F)F)c(OCC2CC2)c1 [Roflumilast] | 121.4
45 | CN(CCOc1ccc(CC2SC(=O)NC2=O)cc1)c1ccccn1 (centres unmarked) [Rosiglitazone HCl] | 114.3
46 | CC(C)c1nc(N(C)S(C)(=O)=O)nc(-c2ccc(F)cc2)c1/C=C/[C@@H](O)C[C@@H](O)CC(=O)O [Rosuvastatin Calcium] | 120.2
47 | CCCN(CCc1cccs1)[C@H]1CCc2c(O)cccc2C1 [Rotigotine] | 62.12
48 | CC(=O)OCC(=O)NCCCOc1cccc(CN2CCCCC2)c1 [Roxatidine Acetate HCl] | 111
49 | NC(=O)c1cn(Cc2c(F)cccc2F)nn1 [Rufinamide] | 91.43
50 | Cc1cncc(CN2CCC(=C3c4ccc(Cl)cc4CCc4cccnc43)CC2)c1 [Rupatadine Fumarate] | 83.98
